Data published in PubChem BioAssay AID2060910 (Molecular Pharmacology Branch, DTP, NCI, 2025).

System: 242566-281-R-J2-PDC complex spheroid viability
Experiment: Anticancer human tumor 242566-281-R-J2-PDC patient-derived pancreatic carcinoma cell line growth inhibition [RAS]
Settings: for IC50: curve of first compound; for viability, T/C: stronger effect = lower value; active means viability on the fitted dose curve at most 10% of control; inactive means the rest
Method in brief: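 Agents were tested in combination matrices in half-log decrements from a top concentration at or near clinical Cmax (10 microM if undetermined). Targets were multi-cell spheroids of tumour lines plus HUVEC and MSC stromal cells.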

[1] = second compound 0.00316 µM, first compound 0.0316 µM
[2] = second compound 0.00316 µM, first compound 0.1 µM
[3] = second compound 0.00316 µM, first compound 0.316 µM
[4] = second compound 0.00316 µM, first compound 1 µM
[5] = second compound 0.01 µM, first compound 0.0316 µM
[6] = second compound 0.01 µM, first compound 0.1 µM
[7] = second compound 0.01 µM, first compound 0.316 µM
[8] = second compound 0.01 µM, first compound 1 µM
[9] = second compound 0.0316 µM, first compound 0.0316 µM
[10] = second compound 0.0316 µM, first compound 0.1 µM
[11] = second compound 0.0316 µM, first compound 0.316 µM
[12] = second compound 0.0316 µM, first compound 1 µM
[13] = second compound 0.1 µM, first compound 0.0316 µM
[14] = second compound 0.1 µM, first compound 0.1 µM
[15] = second compound 0.1 µM, first compound 0.316 µM
[16] = second compound 0.1 µM, first compound 1 µM
[17] = second compound 0.316 µM, first compound 0.0316 µM
[18] = second compound 0.316 µM, first compound 0.1 µM
[19] = second compound 0.316 µM, first compound 0.316 µM
[20] = second compound 0.316 µM, first compound 1 µM
[21] = second compound 1 µM, first compound 0.0316 µM
[22] = second compound 1 µM, first compound 0.1 µM
[23] = second compound 1 µM, first compound 0.316 µM
[24] = second compound 1 µM, first compound 1 µM
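Further: spheroids exposed to compound for 7 days before readout.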
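Wherever viability, T/C is given: 100% = DMSO vehicle control wells.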

CC(=O)OC12COC1CC(O)C1(C)C(=O)C(O)C3=C(C)C(OC(=O)C(O)C(NC(=O)OC(C)(C)C)c4ccccc4)CC(O)(C(OC(=O)c4ccccc4)C21)C3(C)C (centres undefined) + C=CC(=O)N1CCN(c2nc(OCC3CCCN3C)nc3c(F)c(-c4nc(N)cc(C)c4C(F)(F)F)c(Cl)cc23)C(C)C1
0.237 µM: IC50 (second compound 0.01 µM)
0.122 µM: IC50 (second compound 0.0316 µM)
< 0.0316 µM: IC50 (second compound 0.00316 µM) | IC50 (second compound 1 µM)
inactive: viability, T/C [1] 52.6% | viability, T/C [2] 53.8% | viability, T/C [3] 50.5% | viability, T/C [4] 35.5% | viability, T/C (second compound 0.00316 µM, first compound 3.16 µM) 54.5% | viability, T/C (second compound 0.00316 µM, first compound 10 µM) 69.3% | viability, T/C [5] 71.5% | viability, T/C [6] 53% | viability, T/C [7] 42.2% | viability, T/C [8] 41.8% | viability, T/C (second compound 0.01 µM, first compound 3.16 µM) 45.2% | viability, T/C (second compound 0.01 µM, first compound 10 µM) 66.8% | viability, T/C [9] 80.4% | viability, T/C [10] 51.9% | viability, T/C [11] 39.3% | viability, T/C [12] 35.6% | viability, T/C (second compound 0.0316 µM, first compound 3.16 µM) 48.5% | viability, T/C (second compound 0.0316 µM, first compound 10 µM) 66.5% | viability, T/C [13] 61.1% | viability, T/C [14] 51.4% | viability, T/C [15] 47.6% | viability, T/C [16] 37.9% | viability, T/C (second compound 0.1 µM, first compound 3.16 µM) 46.5% | viability, T/C (second compound 0.1 µM, first compound 10 µM) 68.2% | viability, T/C [17] 64.9% | viability, T/C [18] 52.1% | viability, T/C [19] 37% | viability, T/C [20] 49.3% | viability, T/C (second compound 0.316 µM, first compound 3.16 µM) 55.7% | viability, T/C (second compound 0.316 µM, first compound 10 µM) 71.4% | viability, T/C [21] 52.7% | viability, T/C [22] 51.1% | viability, T/C [23] 44.8% | viability, T/C [24] 42.8% | viability, T/C (second compound 1 µM, first compound 3.16 µM) 50.9% | viability, T/C (second compound 1 µM, first compound 10 µM) 65.7%
> 10 µM: IC50 (second compound 0.1 µM) | IC50 (second compound 0.316 µM)

Nc1ccn(C2OC(CO)C(O)C2(F)F)c(=O)n1 (centres undefined) + C=CC(=O)N1CCN(c2nc(OCC3CCCN3C)nc3c(F)c(-c4nc(N)cc(C)c4C(F)(F)F)c(Cl)cc23)C(C)C1
inactive: viability, T/C (second compound 0.00316 µM, first compound 0.00316 µM) 101% | viability, T/C (second compound 0.00316 µM, first compound 0.01 µM) 118% | viability, T/C [1] 92.6% | viability, T/C [2] 52.1% | viability, T/C [3] 25.9% | viability, T/C [4] 18.4% | viability, T/C (second compound 0.01 µM, first compound 0.00316 µM) 123% | viability, T/C (second compound 0.01 µM, first compound 0.01 µM) 128% | viability, T/C [5] 93.6% | viability, T/C [6] 53.8% | viability, T/C [7] 26% | viability, T/C [8] 16.2% | viability, T/C (second compound 0.0316 µM, first compound 0.00316 µM) 103% | viability, T/C (second compound 0.0316 µM, first compound 0.01 µM) 147% | viability, T/C [9] 74.3% | viability, T/C [10] 60% | viability, T/C [11] 21.6% | viability, T/C [12] 15.8% | viability, T/C (second compound 0.1 µM, first compound 0.00316 µM) 134% | viability, T/C (second compound 0.1 µM, first compound 0.01 µM) 124% | viability, T/C [13] 91.3% | viability, T/C [14] 50.8% | viability, T/C [15] 21.5% | viability, T/C [16] 19.1% | viability, T/C (second compound 0.316 µM, first compound 0.00316 µM) 115% | viability, T/C (second compound 0.316 µM, first compound 0.01 µM) 160% | viability, T/C [17] 75.5% | viability, T/C [18] 41.9% | viability, T/C [19] 20.6% | viability, T/C [20] 15.7% | viability, T/C (second compound 1 µM, first compound 0.00316 µM) 115% | viability, T/C (second compound 1 µM, first compound 0.01 µM) 102% | viability, T/C [21] 83.6% | viability, T/C [22] 50.9% | viability, T/C [23] 22% | viability, T/C [24] 18.9%
0.0969 µM: IC50 (second compound 0.1 µM)
0.103 µM: IC50 (second compound 0.0316 µM)
0.108 µM: IC50 (second compound 0.00316 µM)
0.0972 µM: IC50 (second compound 1 µM)
0.0573 µM: IC50 (second compound 0.316 µM)
0.112 µM: IC50 (second compound 0.01 µM)
